Experimental data reported in patent publication US11061017B2, “High throughput and functional screening method for muscle related disorders and biological processes” (CYTOO, priority 2015, dated 2021).

Columns and labels:
[1] = system: myotubes from healthy donor; assay: Inhibition of calcium release after acetylcholine or 4-chloro-m-cresol induction (Fluo-4); format: cell-based, human; conditions: tubocurarine 100 μM, succinylcholine 25 μM; for effect on 4-chloro-m-cresol induction of calcium release: 4-chloro-m-cresol 400 μM induction; for decrease of relative fluorescence intensity after acetylcholine induction: acetylcholine 20 μM induction, inhibitor added 15 minutes before, verapamil, nifedipine, nicardipine 40 μM
Method: (§1) As myotube shortening can also take origin from compound toxicity, physiological cues of myotube contraction need to be validated. Hit validation is performed using a secondary assay estimating the level of calcium release to myotube cytoplasm. Myotubes differentiated from donors are cultured during 5 days and stained with a calcium sensitive florescent probe Fluo-4 (2 μM) in a dedicated buffer (145 mM NaCl, 5 mM KCl, 1 mM CaCl2, 1 mM MgCl2, 5.6 mM glucose, 10 mM Hepes, pH 7.4). A single compound is added to cultured myotubes and a time-lapse acquisition is performed during 30 seconds (Eclipse-Ti, Nikon), by taking a picture each second, to follow the increase in fluorescence intensity of the probe due to calcium entry into the cytoplasm. After fluorescence background removal, a relative fluorescence intensity is calculated in the whole myotubes for each timepoint, normalizing to the first value set up at 100%.
Myoblasts are differentiated during 5 days in culture, then potential inhibitors are added in calcium buffer 15 minutes before an acethycholine treatment. […] Moreover mode of action characterization can be optimized by comparing a compound effect on both acethycholine and 4-chloro-m-cresol inductions. […] Even if a time-lapse method is described here using a classical widefield microscope, this embodiment of the invention is fully compatible with kinetic plate readers systems allowing automated calcium flow measurements, including the Hamamatsu FDSS.

[2] = system: myotubes from DMD donors; assay: DMD myotube morphology rescue assay; format: cell-based, human; conditions: for increase of fusion index in DMD myotubes / increase of tube number in DMD myotubes: prednisone 500 nM, deflazacort 50 nM
Method: Using previously described protocol, human primary myoblasts, are cultured on fibronectin coated surfaces within growth medium during 24 hours. Then cells are cultured within differentiation medium (DMEM/F12, 2% Horse Serum, 0.5% P/S) for 24 hours. Therapeutic drug candidates are added and myotubes are then cultured during 96 hours. Cells are fixed and an immunostaining is realized against troponin T and nuclei. Images are acquired using an Operetta high content imaging system (PerkinElmer). Automated image processing was been developed by the inventors using the Acapella software library (PerkinElmer).

[3] = system: myotubes from a healthy donor with chemically induced atrophy; assay: Atrophy induction and atrophy rescue assay (muscle disuse or wasting model); format: cell-based, human; conditions: for rescue of atrophy induced by IL1-β / reduction of myotube area (atrophy induction): IL1-β 1.16 nM; for rescue of atrophy induced by IL1-β / rescue of atrophy induced by TNF-α / rescue of atrophy induced by dexamethasone / rescue of atrophy induced by myostatin: IGF-1 18.75 nM, trichostatin A 300 nM; for rescue of atrophy induced by TNF-α / reduction of myotube area (atrophy induction): TNF-α 115 pM; for rescue of atrophy induced by dexamethasone / reduction of myotube area (atrophy induction): dexamethasone 100 μM; for rescue of atrophy induced by myostatin / reduction of myotube area (atrophy induction): myostatin 4.8 nM; for reduction of myotube area (atrophy induction): 96 hours
Excerpt: Another possible application is to mimic muscle wasting disorders (cachexia, sarcopenia) by chemically inducing atrophy on myotubes from healthy donors and then to screen compounds potentially rescuing the atrophic phenotype. As patients suffering from a large decrease in muscle mass, primary myoblast samples or myofibers can't be collected for ethical reasons and artificial in vitro strategies are necessary. Nonetheless, signaling pathways impacted in cachexia and sarcopenia are well described in the literature implicating three major cascades: glucocorticoid, Smad2/3 and the NF-κB pathway. Molecules known to reproduce these molecular mechanisms can therefore be used to simulate pathological myotubes. For example, glucocorticoid pathway can be mimicked by dexamethasone treatment, Smad2/3 pathway by myostatin and TGF-β treatments, and NF-κB pathway by IL1-β and TNF-α treatments.
To do so, human primary myoblasts (HSMM, Lonza), from a healthy donor, are cultured on fibronectin coated surfaces within growth medium (Lonza SkGM™-2 cell culture Kit) during 24 hours. Then cells are cultured within differentiation medium (DMEM/F12, 2% Horse Serum, 0.5% P/S) for 24 hours. Candidates with potential rescue effect are added to the forming myotubes 15 minutes before the atrophic inducer. Then myotubes are cultured during 96 hours. Cells are fixed and an immunostaining is realized against troponin T and nuclei. Images are acquired using an Operetta high content imaging system (PerkinElmer). Automated image processing has been developed by the inventors using the Acapella software library (PerkinElmer).

[4] = system: myotubes differentiated from healthy donors; assay: Morphology assay (myotube area and nuclei count, dose response); format: cell-based, human; conditions: 96 hours, compared to untreated control
Method: Human primary myoblasts (HSMM, Lonza), from a healthy donor, are cultured on fibronectin coated surfaces within growth medium (Lonza SkGM™-2 cell culture Kit) during 24 hours. Then cells are cultured within differentiation medium (DMEM/F12, 2% Horse Serum, 0.5% P/S) for 24 hours. Compounds are added to the forming myotubes during 96 hours. Cells are fixed and an immunostaining is realized against troponin T and nuclei. Images are acquired using an Operetta high content imaging system (PerkinElmer).
In order to characterize compounds mode of action on the myotube model (including myoblasts differentiation, myotube maturation, myotube hypertrophy, myotube atrophy, or cell viability), automated image segmentation and analysis methods has been developed by the inventors using the Acapella software library (PerkinElmer).
First, customized segmentations of myotubes and nuclei are performed.
Second, objects are analyzed to extract basic parameters such as myotube count, nuclei count, myotube morphology (including their length, width, area, and orientation), fusion index (through the percentage nuclei within myotubes). Taking said parameters into account, aberrant myotubes are removed.

[5] = system: myotubes from healthy and type I diabetes donors; assay: Morphology of myotubes from healthy and type I diabetes donors; format: cell-based, human; conditions: insulin 10 μM
Method: (§2) Human primary myoblasts from a healthy or a type I diabetic donor, are cultured on fibronectin coated surfaces within growth medium during 24 hours. Then cells are cultured within differentiation medium (DMEM/F12, 2% Horse Serum, 0.5% P/S) for 24 hours. Therapeutic drug candidates are added and myotubes are then cultured during 96 hours. Compound effect on glucose metabolism is performed by using the indications provided by the manufacturer (Glucose Uptake Colorimetric Assay Kit, Sigma).
FIG. 10 is a quantification of some relevant morphological parameters, as tube number, fusion index, tube area tube width, of myotubes from healthy and type I diabetes donors, cultured in control and insulin (10 μM) conditions according to the invention. […] This illustrates the specificity of metabolisms assays on compounds detection and the complementarity of the approaches to detect new drugs rescuing specifically metabolic disorders.

[6] = system: myotubes differentiated from myoblasts of healthy donors; assay: Glucose metabolism assay (Glucose Uptake Colorimetric Assay Kit); format: cell-based, human
Method: as §2

[7] = system: myotubes differentiated from healthy donors (human primary myoblasts HSMM, Lonza); assay: Myotube shortening assay (contraction induction, troponin T immunostaining, image analysis); format: cell-based; conditions: 4-chloro-m-cresol 1.5 mM, 3 minutes
Method: Human primary myoblasts (HSMM, Lonza) are cultured on fibronectin coated surfaces within growth medium (Lonza SkGM™-2 cell culture Kit) during 24 hours. Then cells are cultured within differentiation medium (DMEM/F12, 2% Horse Serum, 0.5% P/S) for 5 days. Compounds (4-chloro-m-cresol, 1.5 mM) are added to myotubes during 3 minutes. Cells are fixed and an immunostaining is realized against troponin T and nuclei. Images are acquired using an Operetta high content imaging system (PerkinElmer). Automated image segmentation and analysis methods has been developed by the inventors using the Acapella software library (PerkinElmer). Then, objects are analyzed to extract basic parameters such as myotube count, nuclei count, myotube morphology (including their length, width, area), fusion index (through the percentage nuclei embedded within myotubes). However, the main descriptor of myotube shortening is the quantification of the number of spots, which are objects obtained due to myotube detachment from the culture device and subsequent folding of at least one extremity of the myotube on itself (FIG. 2B, right). Taking said parameters into account, aberrant myotubes are removed. An advanced descriptor is additionally measured, as the number of myotubes encompassing a length lower than 470 μm. […] As myotubes treatment with 4-chloro-m-cresol induces 25% decrease in tube area, and 50% increase in staining intensity readouts, the use of spot number quantification largely increases the assay window (1000%) with a reduced variability, ensuring a full compatibility of the assay with compounds screening (Z′-factors higher than 0.7).

[8] = system: myotubes differentiated from healthy donors; assay: Calcium release assay in myotubes (Fluo-4 time-lapse), inducers; format: cell-based, human; conditions: acetylcholine 20 μM, caffeine 10 mM, IGF-1 37 nM, 30 seconds time-lapse
Method: as §1

Molecule: C[N+](C)(C)CCOC(=O)CCC(=O)OCC[N+](C)(C)C [succinylcholine]
- effect on 4-chloro-m-cresol induction of calcium release [1]: −30%
- decrease of relative fluorescence intensity after acetylcholine induction [1]: 94%

Molecule: C[C@]12C=CC(=O)C=C1CC[C@@H]1[C@@H]2C(=O)C[C@@]2(C)[C@H]1CC[C@]2(O)C(=O)CO [Prednisone, prednisone]
- increase of fusion index in DMD myotubes [2]: 28%
- increase of tube number in DMD myotubes [2]: 20%

Molecule: CC(/C=C/C(=O)NO)=C\[C@@H](C)C(=O)c1ccc(N(C)C)cc1 [trichostatin A]
- rescue of atrophy induced by IL1-β [3]: 54%
- rescue of atrophy induced by TNF-α [3]: 100%
- rescue of atrophy induced by dexamethasone [3]: 175%
- rescue of atrophy induced by myostatin [3]: 71%
- effect on myotube area [4]: atrophy/hypertrophy biphasic effects

Molecule: Insulin
- effect on myotube morphology (tube number, fusion index, tube area, tube width) [5]: does not modify myotube morphology
- increase of glucose metabolism ([6]; insulin 10 μM): 67%

Molecule: Cc1cc(O)ccc1Cl [4-chloro-m-cresol]
- spot number quantification, assay window [7]: 1000%
- decrease in tube area ([7]; myotubes cultured 5 days): 25%
- increase in staining intensity ([7]; troponin T staining): 50%

Molecule: IL1-β: atrophy inducer, NF-κB pathway
- reduction of myotube area (atrophy induction) [3]: 35%

Molecule: Cn1c(=O)c2c(ncn2C)n(C)c1=O [caffeine]
- increase of relative fluorescence intensity (calcium release) compared to steady state level [8]: 55%

Molecule: COC(=O)C1=C(C)NC(C)=C(C(=O)OCCN(C)Cc2ccccc2)C1c1cccc([N+](=O)[O-])c1 (stereo not drawn) [nicardipine]
- decrease of relative fluorescence intensity after acetylcholine induction [1]: 91%

Molecule: IGF-1: hypertrophic reference compound
- increase of relative fluorescence intensity (calcium release) compared to steady state level [8]: 20%
- rescue of atrophy induced by IL1-β [3]: 85%
- rescue of atrophy induced by TNF-α [3]: 89%
- rescue of atrophy induced by dexamethasone [3]: 275%
- rescue of atrophy induced by myostatin [3]: 71%
- effect on glucose uptake ([6]; IGF-1 37 nM): no effect
- effect on myotube area [4]: hypertrophic
- effect on nuclei count [4]: without nuclei count alteration
- rescue of fusion index in DMD myotubes ([2]; IGF-1 37 nM, 96 hours): 204%
- rescue of myotube width in DMD myotubes ([2]; IGF-1 37 nM, 96 hours): 15%
- rescue of tube number in DMD myotubes ([2]; IGF-1 37 nM, 96 hours): 109%

Molecule: myostatin: atrophic reference compound, Smad2/3 pathway
- reduction of myotube area (atrophy induction) [3]: 30%
- effect on nuclei count [4]: decrease in nuclei count

Molecule: COc1cc2c3cc1Oc1cc(ccc1O)C[C@@H]1c4c(cc(OC)c(O)c4Oc4ccc(cc4)C[C@@H]3N(C)CC2)CC[N+]1(C)C [Tubocurarine, tubocurarine]
- effect on 4-chloro-m-cresol induction of calcium release [1]: 0%
- decrease of relative fluorescence intensity after acetylcholine induction [1]: 96%

Molecule: TNF-α
- reduction of myotube area (atrophy induction) [3]: 55%

Molecule: CC(=O)OCC(=O)[C@@]12N=C(C)O[C@@H]1C[C@H]1[C@@H]3CCC4=CC(=O)C=C[C@]4(C)[C@H]3[C@@H](O)C[C@@]12C [deflazacort]
- increase of fusion index in DMD myotubes [2]: 59%
- increase of tube number in DMD myotubes [2]: 54%

Molecule: TGF-β: atrophic reference compound, Smad2/3 pathway
- effect on myotube area [4]: atrophic
- effect on nuclei count [4]: without nuclei count alteration

Molecule: CC(=O)OCC[N+](C)(C)C [acethylcholine, acetylcholine]
- increase of relative fluorescence intensity (calcium release) compared to steady state level [8]: 305%

Molecule: C[C@@H]1C[C@H]2[C@@H]3CCC4=CC(=O)C=C[C@]4(C)[C@@]3(F)[C@@H](O)C[C@]2(C)[C@@]1(O)C(=O)CO [dexamethasone]
- reduction of myotube area (atrophy induction) [3]: 60%
